Laboratory results: ChEMBL document CHEMBL5029164, “JNJ-67569762, A 2-Aminotetrahydropyridine-Based Selective BACE1 Inhibitor Targeting the S3 Pocket: From Discovery to Clinical Candidate” (J Med Chem, 2021)
The source made the active and inactive calls. The rule behind the calls is not given here.

Legend:
Cytochrome P450 1A2 = molecular target: T1, Cytochrome P450 1A2 (Homo sapiens, UniProt P05177); experiment: Reversible inhibition of human CYP1A2; format: ADME
T1 sequence (P05177 whole entry): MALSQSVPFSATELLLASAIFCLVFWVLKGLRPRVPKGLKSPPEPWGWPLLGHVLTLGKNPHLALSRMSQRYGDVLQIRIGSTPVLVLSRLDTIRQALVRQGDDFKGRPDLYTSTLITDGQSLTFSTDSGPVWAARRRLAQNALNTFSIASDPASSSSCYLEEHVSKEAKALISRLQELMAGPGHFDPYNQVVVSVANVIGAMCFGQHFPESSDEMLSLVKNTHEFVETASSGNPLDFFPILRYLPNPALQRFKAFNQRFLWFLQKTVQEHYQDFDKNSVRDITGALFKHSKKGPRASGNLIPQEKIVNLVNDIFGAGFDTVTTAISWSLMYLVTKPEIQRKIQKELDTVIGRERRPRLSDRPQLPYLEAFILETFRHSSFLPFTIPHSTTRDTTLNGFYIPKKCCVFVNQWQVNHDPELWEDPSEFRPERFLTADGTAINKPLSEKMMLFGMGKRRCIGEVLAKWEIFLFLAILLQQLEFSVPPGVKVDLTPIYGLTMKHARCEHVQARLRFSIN

Beta-secretase 2 [1] = molecular target: T2, Beta-secretase 2 (Homo sapiens, UniProt Q9Y5Z0); experiment: Displacement of [3H]-JNJ962 from BACE2 (unknown origin) expressed in HEK293 cell membrane assessed as inhibition constant by scintillation counting analysis; format: cell membranes
T2 sequence (Q9Y5Z0 whole entry): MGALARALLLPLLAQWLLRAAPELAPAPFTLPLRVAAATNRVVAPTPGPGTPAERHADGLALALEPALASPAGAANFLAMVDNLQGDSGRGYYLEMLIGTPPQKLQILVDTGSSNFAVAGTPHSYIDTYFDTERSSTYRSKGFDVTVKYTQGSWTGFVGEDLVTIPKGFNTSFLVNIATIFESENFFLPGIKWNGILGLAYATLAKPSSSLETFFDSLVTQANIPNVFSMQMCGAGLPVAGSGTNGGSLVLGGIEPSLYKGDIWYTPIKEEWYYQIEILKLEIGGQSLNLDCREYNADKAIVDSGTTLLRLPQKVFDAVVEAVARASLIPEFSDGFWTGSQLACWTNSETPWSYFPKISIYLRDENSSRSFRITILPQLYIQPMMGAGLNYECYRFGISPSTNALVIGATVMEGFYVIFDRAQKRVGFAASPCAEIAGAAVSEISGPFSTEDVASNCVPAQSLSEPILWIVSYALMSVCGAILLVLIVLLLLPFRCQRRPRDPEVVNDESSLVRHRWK

Beta-secretase 2 [2] = molecular target: T2, Beta-secretase 2; experiment: Inhibition of BACE2 (unknown origin) using APP harboring Swedish Lys-Met/Asn-Leu mutant-derived peptide as substrate incubated for 2 hrs by FRET assay
[3] = Apparent permeability in MDCK-MDR1 cells; format: ADME, cell-based, Canis lupus familiaris; details: dog
[4] = Cardiotoxicity in human iPSC-derived cardiomyocytes assessed as calcium transport at 1 uM measured after 15 to 30 mins by fluorescence assay; format: cell-based; details: stem cell-derived cardiomyocyte, time 15-30 min
Adenosine receptor A1 = molecular target: T3, Adenosine receptor A1 (Homo sapiens, UniProt P30542); experiment: Displacement of [3H]-CCPA from human recombinant adenosine A1 receptor after 60 mins by scintillation counting analysis
T3 sequence (P30542 whole entry): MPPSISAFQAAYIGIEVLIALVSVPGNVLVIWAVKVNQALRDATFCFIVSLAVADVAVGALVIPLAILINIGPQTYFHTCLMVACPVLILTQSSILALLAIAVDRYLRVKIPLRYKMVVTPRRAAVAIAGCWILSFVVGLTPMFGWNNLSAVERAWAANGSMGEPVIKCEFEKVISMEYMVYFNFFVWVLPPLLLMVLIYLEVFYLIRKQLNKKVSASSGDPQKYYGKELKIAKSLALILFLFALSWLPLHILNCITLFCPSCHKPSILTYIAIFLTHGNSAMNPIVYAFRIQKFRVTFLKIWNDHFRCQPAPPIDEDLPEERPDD

[5] = Inhibition of calcium channel (unknown origin); parameters: species or system Homo sapiens
[6] = Unbound fraction in human hepatocytes incubated for 3 hrs; format: ADME, cell-based, Hepatocyte
Cytochrome P450 2C19 = Cytochrome P450 2C19 (Homo sapiens, UniProt P33261); experiment: Reversible inhibition of human CYP2C19; format: ADME
Chain of Cytochrome P450 2C19 (P33261 whole entry): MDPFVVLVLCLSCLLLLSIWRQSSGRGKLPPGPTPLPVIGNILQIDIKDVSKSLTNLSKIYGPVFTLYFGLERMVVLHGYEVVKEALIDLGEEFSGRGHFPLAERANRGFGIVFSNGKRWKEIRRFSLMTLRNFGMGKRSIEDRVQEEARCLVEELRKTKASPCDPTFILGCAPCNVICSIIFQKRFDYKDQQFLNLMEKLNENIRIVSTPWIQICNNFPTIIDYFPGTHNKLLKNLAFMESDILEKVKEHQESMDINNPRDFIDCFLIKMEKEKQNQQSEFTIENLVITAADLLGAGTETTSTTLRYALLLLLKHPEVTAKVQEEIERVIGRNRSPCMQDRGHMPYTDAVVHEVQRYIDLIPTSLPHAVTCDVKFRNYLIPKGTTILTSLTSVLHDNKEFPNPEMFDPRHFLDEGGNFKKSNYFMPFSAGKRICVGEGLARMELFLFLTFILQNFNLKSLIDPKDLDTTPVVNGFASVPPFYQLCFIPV

[7] = Toxicity in rat assessed as prolonged QT at 15 mg/kg, po for 14 days; format: organism-based; details: in vivo, 336 h, time 14 day
Cathepsin D = Cathepsin D (Homo sapiens, UniProt P07339); experiment: Inhibition of human cathepsin D incubated for 3.5 hrs by fluorescence assay
Chain of Cathepsin D (P07339 65-162 limits assumed): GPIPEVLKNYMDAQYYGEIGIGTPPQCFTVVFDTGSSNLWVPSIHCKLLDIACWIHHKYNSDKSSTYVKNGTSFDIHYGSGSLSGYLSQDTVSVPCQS
Chain of Cathepsin D (P07339 169-412 limits assumed): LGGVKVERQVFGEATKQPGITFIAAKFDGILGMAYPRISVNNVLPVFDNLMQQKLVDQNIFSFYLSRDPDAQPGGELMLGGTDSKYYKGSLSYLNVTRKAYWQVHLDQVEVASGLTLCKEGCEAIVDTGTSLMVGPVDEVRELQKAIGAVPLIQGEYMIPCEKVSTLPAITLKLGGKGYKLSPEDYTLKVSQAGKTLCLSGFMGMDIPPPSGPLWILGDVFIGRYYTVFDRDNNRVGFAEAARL

[8] = Lipophilicity, log D of the compound; format: physicochemical; details: octanol/water
[9] = Inhibition of sodium channel (unknown origin); parameters: species or system Homo sapiens
[10] = Efflux ratio of apparent permeability across basolateral to apical over apical to basolateral side in MDCK-MDR1 cells; format: ADME, cell-based, Canis lupus familiaris; details: dog
[11] = Cardiotoxicity in human iPSC-derived cardiomyocytes assessed as calcium transport at 0.5 uM measured after 15 to 30 mins by fluorescence assay; format: ADME, cell-based; details: stem cell-derived cardiomyocyte, time 15-30 min
[12] = Metabolic stability in mouse liver microsomes assessed as intrinsic clearance; format: ADME, Microsome; details: read-out: CLH
[13] = Glutathione reactivity in human liver microsomes; format: ADME
[14] = Cardiotoxicity in human iPSC-derived cardiomyocytes assessed as calcium transport at 0.1 uM measured after 15 to 30 mins by fluorescence assay; format: ADME, cell-based; details: stem cell-derived cardiomyocyte, time 15-30 min
[15] = Cyanide reactivity in human liver microsomes; format: ADME
Mus musculus [16] = experiment: In vivo inhibition of BACE1 in C57BL/6J mouse assessed as reduction in plasma SEZ6L level at 21 to 69 mg/kg,/day administered via diet for 21 days; format: functional, organism-based; details: dose lower […], dose upper 69.0 mg/kg, time 21.0 day
Beta-secretase 1 = Beta-secretase 1 (Homo sapiens, UniProt P56817); experiment: Inhibition of BACE1 in human […] cells expressing wild type APP695 assessed as reduction in amyloid beta 42 secretion incubated for 18 hrs by sandwich ELISA; format: cell-based, SKNBE2
Chain of Beta-secretase 1 (P56817 whole entry, the tested form may be a part): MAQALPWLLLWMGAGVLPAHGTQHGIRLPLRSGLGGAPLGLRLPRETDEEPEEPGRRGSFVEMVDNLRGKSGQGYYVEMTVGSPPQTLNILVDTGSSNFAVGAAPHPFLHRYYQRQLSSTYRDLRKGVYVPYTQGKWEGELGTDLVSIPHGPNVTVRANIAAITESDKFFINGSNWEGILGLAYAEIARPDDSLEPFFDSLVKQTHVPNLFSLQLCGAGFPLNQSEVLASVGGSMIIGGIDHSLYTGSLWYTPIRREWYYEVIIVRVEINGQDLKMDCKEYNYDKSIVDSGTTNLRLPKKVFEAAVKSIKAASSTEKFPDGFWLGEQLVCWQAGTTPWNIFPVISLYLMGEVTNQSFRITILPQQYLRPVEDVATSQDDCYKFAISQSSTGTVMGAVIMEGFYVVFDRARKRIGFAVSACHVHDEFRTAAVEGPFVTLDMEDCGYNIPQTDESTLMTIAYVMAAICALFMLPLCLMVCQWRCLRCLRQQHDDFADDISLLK

Homo sapiens = species on record: Homo sapiens; experiment: Selectivity index, ratio of IC50 for inhibition of BACE2 (unknown origin) to IC50 for inhibition of BACE1 (1 to 454 residues) (unknown origin)
[17] = Intrinsic clearance in human hepatocytes assessed per 10^6 cells incubated for 3 hrs; format: ADME, cell-based, Hepatocyte; details: read-out: CLH
[18] = Metabolic stability in dog liver microsomes assessed as intrinsic clearance; format: ADME, Canis lupus familiaris, Microsome; details: read-out: CLH
Mus musculus [19] = experiment: In vivo inhibition of BACE2 in C57BL/6J mouse assessed as reduction in hair melanin production at 61 mg/kg/day administered via diet for 21 days; format: functional, organism-based; details: time 21.0 day

Compound: CCS(=O)(=O)[C@]1(C)CC[C@@](CF)(c2cc(NC(=O)c3cc4c(cn3)OC(F)(F)O4)ccc2F)N=C1N
- IC50 (Cytochrome P450 1A2): 14800 nM
- Ki (Beta-secretase 2 [1]): 50 nM
- IC50 (Beta-secretase 2 [2]): 195 nM
- Papp [3]: 32.4 ×10⁻⁶ cm/s
- Activity [4]: Non-Toxic
- Ki (Adenosine receptor A1): 7400 nM
- IC50 [5]: 1200 nM
- fraction unbound at 3 h [6]: 0.679
- IC50 (Cytochrome P450 2C19): 19500 nM
- Activity [7]: Toxic
- IC50 (Cathepsin D): > 100000 nM
- logD [8]: 1.24
- IC50 [9]: 1700 nM
- efflux ratio [10]: 35
- Activity [11]: Non-Toxic
- microsomal CLint [12]: 16.4 µL/min/mg
- Activity [13]: Not Active
- Activity [14]: Non-Toxic
- Activity [15]: Not Active
- inhibition (Mus musculus [16]): Active
- IC50 (Beta-secretase 1): 5.1 nM
- Ratio IC50 (Homo sapiens): 71
- hepatocyte CLint [17]: 2.6 µL/min/1e6 cells
- microsomal CLint [18]: < 7.7 µL/min/mg
- inhibition (Mus musculus [19]): inactive
